Patent publication US20240092835A1, “NOVEL PEPTIDES CAPABLE OF ALTERING NK CELL ACTIVITY” (Massachusetts Institute of Technology, priority 2022, published 2024)
Entries after “also recorded” stand apart in the source; their conditions may differ. Where no end group is shown, it is not given here.

Legend:
[1] = biological target: CD94/NKG2A (Homo sapiens, UniProt P26715+Q13241); test: Steady-state surface plasmon resonance of peptide-HLA-E complex with CD94/NKG2A; type: binding; conditions: for Binding of peptide-HLA-E complexes to CD94/NKG2A normalized to a theoretical Rmax: steady-state SPR
Sequence of CD94/NKG2A (P26715 94-233 limits assumed): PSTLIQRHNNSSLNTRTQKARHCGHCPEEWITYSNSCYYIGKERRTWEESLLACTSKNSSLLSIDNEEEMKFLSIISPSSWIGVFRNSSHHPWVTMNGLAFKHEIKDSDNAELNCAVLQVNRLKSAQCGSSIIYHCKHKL
Sequence of CD94/NKG2A (Q13241 32-179 limits assumed): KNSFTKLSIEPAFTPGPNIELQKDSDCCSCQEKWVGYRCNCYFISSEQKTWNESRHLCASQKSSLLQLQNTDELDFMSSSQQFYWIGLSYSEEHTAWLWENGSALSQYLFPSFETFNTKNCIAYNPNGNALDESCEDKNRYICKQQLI
Protocol: (§1) Binding affinity of novel peptides linked to HLA-E was determined using surface plasmon resonance (SPR), a methodology used to study protein-protein interactions (Tables 15-19). The peptide-HLA-E complex (generated as a single chain trimer) was immobilized on the sensor chip surface and CD94/NKG2A or CD94/NKG2C were flowed over. Steady-state surface plasmon resonance experiments were performed with a Biacore T200 instrument. CD94/NKG2x in HBS-EP+ buffer was injected as analyte in a concentration range of 0.1 μM to 102.4 μM and flow rate of 10 μL/min at 25° C. Data was fit with Prism 9.4 (GraphPad Software Inc; San Diego CA) to a “one site, specific binding” model. Series S CM5 chips were coupled to neutravidin and utilized. Biotinylated pMHC was immobilized at approximately 400 RU. KD values calculated by Biacore software are reported. Rmax, fit values were calculated by Biacore software. Rmax, theoretical values were calculated using the analyte/ligand mass ratio (0.66) multiplied by the amount of ligand coupled to the chip.

[2] = biological target: T1, HLA-E (Homo sapiens, UniProt P13747); test: HLA-E surface stabilization assay with RMA-S/HLA-E cells; type: cell-based; conditions: 30 μM peptide, 16 hours; for HLA-E surface expression stability (GeoMFI): anti-HLA-E antibody
T1 construct: expressed in transfected cells; host or cells: RMA-S/HLA-E cells (antigen processing-defective lymphoma cell line)
T1 sequence (P13747 22-358): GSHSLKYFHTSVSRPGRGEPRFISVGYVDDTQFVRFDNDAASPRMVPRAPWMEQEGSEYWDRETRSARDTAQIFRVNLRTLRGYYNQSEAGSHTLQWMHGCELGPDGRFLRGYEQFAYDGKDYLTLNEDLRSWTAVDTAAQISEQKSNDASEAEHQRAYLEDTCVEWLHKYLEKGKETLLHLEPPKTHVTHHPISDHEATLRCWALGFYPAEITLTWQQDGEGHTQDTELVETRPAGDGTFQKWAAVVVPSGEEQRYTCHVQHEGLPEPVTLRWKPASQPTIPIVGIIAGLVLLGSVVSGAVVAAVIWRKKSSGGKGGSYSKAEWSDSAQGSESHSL
T1 sequence (P61769 21-119 partner): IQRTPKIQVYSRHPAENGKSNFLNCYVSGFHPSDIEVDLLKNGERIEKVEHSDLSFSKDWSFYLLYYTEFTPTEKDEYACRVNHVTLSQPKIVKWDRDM
Protocol: HLA-E surface expression was assessed by measuring geometric mean fluorescence intensity (GeoMFI) in RMA-S cells following immunofluorescence staining with an anti-HLA-E antibody (Table 14). Increased GeoMFI was indicative of increased HLA-E surface expression stability following novel peptide exposures (FIG. 3).

[3] = biological target: CD94/NKG2C (Homo sapiens, UniProt P26717+Q13241); test: Steady-state surface plasmon resonance of peptide-HLA-E complex with CD94/NKG2C; type: binding; conditions: for Binding of peptide-HLA-E complexes to CD94/NKG2C normalized to a theoretical Rmax: steady-state SPR
Sequence of CD94/NKG2C (P26717 94-231 limits assumed): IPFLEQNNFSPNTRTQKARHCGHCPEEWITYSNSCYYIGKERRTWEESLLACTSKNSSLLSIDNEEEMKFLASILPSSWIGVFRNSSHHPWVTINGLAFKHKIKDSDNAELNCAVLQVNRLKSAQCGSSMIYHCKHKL
Sequence of CD94/NKG2C (Q13241 32-179 limits assumed): as the sequence (Q13241 32-179 limits assumed) above
Protocol: as §1

## VNPGRSLFL [human5, VNPGRSLFL]
[1]; CD94/NKG2A concentration 0 μM
  binding of peptide-HLA-E complex to CD94/NKG2A normalized to a fitted Rmax: −0.002
[1]; CD94/NKG2A concentration 0.1 μM
  binding of peptide-HLA-E complex to CD94/NKG2A normalized to a fitted Rmax: 0.177
[1]; CD94/NKG2A concentration 0.2 μM
  binding of peptide-HLA-E complex to CD94/NKG2A normalized to a fitted Rmax: 0.288
[1]; CD94/NKG2A concentration 0.4 μM
  binding of peptide-HLA-E complex to CD94/NKG2A normalized to a fitted Rmax: 0.434
[1]; CD94/NKG2A concentration 0.8 μM
  binding of peptide-HLA-E complex to CD94/NKG2A normalized to a fitted Rmax: 0.593
[1]; CD94/NKG2A concentration 1.6 μM
  binding of peptide-HLA-E complex to CD94/NKG2A normalized to a fitted Rmax: 0.739
[1]; CD94/NKG2A concentration 3.2 μM
  binding of peptide-HLA-E complex to CD94/NKG2A normalized to a fitted Rmax: 0.863
[1]; CD94/NKG2A concentration 6.4 μM
  binding of peptide-HLA-E complex to CD94/NKG2A normalized to a fitted Rmax: 0.955
[1]; CD94/NKG2A concentration 12.8 μM
  binding of peptide-HLA-E complex to CD94/NKG2A normalized to a fitted Rmax: 1.018
[1]; CD94/NKG2A concentration 25.6 μM
  binding of peptide-HLA-E complex to CD94/NKG2A normalized to a fitted Rmax: 1.059
[1]; CD94/NKG2A concentration 51.2 μM
  binding of peptide-HLA-E complex to CD94/NKG2A normalized to a fitted Rmax: 1.081
[1]; CD94/NKG2A concentration 102.4 μM
  binding of peptide-HLA-E complex to CD94/NKG2A normalized to a fitted Rmax: 1.105
[1]; CD94/NKG2A analyte concentration 0.000 μM
  Binding of peptide-HLA-E complexes to CD94/NKG2A normalized to a theoretical Rmax: −0.001
[1]; CD94/NKG2A analyte concentration 0.100 μM
  Binding of peptide-HLA-E complexes to CD94/NKG2A normalized to a theoretical Rmax: 0.074
[1]; CD94/NKG2A analyte concentration 0.200 μM
  Binding of peptide-HLA-E complexes to CD94/NKG2A normalized to a theoretical Rmax: 0.120
[1]; CD94/NKG2A analyte concentration 0.400 μM
  Binding of peptide-HLA-E complexes to CD94/NKG2A normalized to a theoretical Rmax: 0.181
[1]; CD94/NKG2A analyte concentration 0.800 μM
  Binding of peptide-HLA-E complexes to CD94/NKG2A normalized to a theoretical Rmax: 0.247
[1]; CD94/NKG2A analyte concentration 1.600 μM
  Binding of peptide-HLA-E complexes to CD94/NKG2A normalized to a theoretical Rmax: 0.308
[1]; CD94/NKG2A analyte concentration 3.200 μM
  Binding of peptide-HLA-E complexes to CD94/NKG2A normalized to a theoretical Rmax: 0.360
[1]; CD94/NKG2A analyte concentration 6.400 μM
  Binding of peptide-HLA-E complexes to CD94/NKG2A normalized to a theoretical Rmax: 0.398
[1]; CD94/NKG2A analyte concentration 12.800 μM
  Binding of peptide-HLA-E complexes to CD94/NKG2A normalized to a theoretical Rmax: 0.425
[1]; CD94/NKG2A analyte concentration 25.600 μM
  Binding of peptide-HLA-E complexes to CD94/NKG2A normalized to a theoretical Rmax: 0.442
[1]; CD94/NKG2A analyte concentration 51.200 μM
  Binding of peptide-HLA-E complexes to CD94/NKG2A normalized to a theoretical Rmax: 0.451
[1]; CD94/NKG2A analyte concentration 102.400 μM
  Binding of peptide-HLA-E complexes to CD94/NKG2A normalized to a theoretical Rmax: 0.461
[2]; Trial 1
  HLA-E surface expression stability (GeoMFI): 569 GeoMFI
[2]; Trial 2
  HLA-E surface expression stability (GeoMFI): 509 GeoMFI
[2]; Trial 3
  HLA-E surface expression stability (GeoMFI): 566 GeoMFI
[2]; Trial 4
  HLA-E surface expression stability (GeoMFI): 750 GeoMFI
[2]; listed as BFAR263-271
  HLA-E surface expression stabilization strength (in words): closest to the experimental negative control (DMSO); also recorded: lowest
[3]; CD94/NKG2C concentration 0 μM
  binding of peptide-HLA-E complex to CD94/NKG2C normalized to a fitted Rmax: −0.001
[3]; CD94/NKG2C concentration 0.1 μM
  binding of peptide-HLA-E complex to CD94/NKG2C normalized to a fitted Rmax: 0.064
[3]; CD94/NKG2C concentration 0.2 μM
  binding of peptide-HLA-E complex to CD94/NKG2C normalized to a fitted Rmax: 0.119
[3]; CD94/NKG2C concentration 0.4 μM
  binding of peptide-HLA-E complex to CD94/NKG2C normalized to a fitted Rmax: 0.205
[3]; CD94/NKG2C concentration 0.8 μM
  binding of peptide-HLA-E complex to CD94/NKG2C normalized to a fitted Rmax: 0.333
[3]; CD94/NKG2C concentration 1.6 μM
  binding of peptide-HLA-E complex to CD94/NKG2C normalized to a fitted Rmax: 0.488
[3]; CD94/NKG2C concentration 3.2 μM
  binding of peptide-HLA-E complex to CD94/NKG2C normalized to a fitted Rmax: 0.650
[3]; CD94/NKG2C concentration 6.4 μM
  binding of peptide-HLA-E complex to CD94/NKG2C normalized to a fitted Rmax: 0.795
[3]; CD94/NKG2C concentration 12.8 μM
  binding of peptide-HLA-E complex to CD94/NKG2C normalized to a fitted Rmax: 0.902
[3]; CD94/NKG2C concentration 25.6 μM
  binding of peptide-HLA-E complex to CD94/NKG2C normalized to a fitted Rmax: 0.971
[3]; CD94/NKG2C concentration 51.2 μM
  binding of peptide-HLA-E complex to CD94/NKG2C normalized to a fitted Rmax: 0.990
[3]; CD94/NKG2C concentration 102.4 μM
  binding of peptide-HLA-E complex to CD94/NKG2C normalized to a fitted Rmax: 0.983
[3]; CD94/NKG2C analyte concentration 0 μM
  Binding of peptide-HLA-E complexes to CD94/NKG2C normalized to a theoretical Rmax: 0.000
[3]; CD94/NKG2C analyte concentration 0.1 μM
  Binding of peptide-HLA-E complexes to CD94/NKG2C normalized to a theoretical Rmax: 0.024
[3]; CD94/NKG2C analyte concentration 0.2 μM
  Binding of peptide-HLA-E complexes to CD94/NKG2C normalized to a theoretical Rmax: 0.044
[3]; CD94/NKG2C analyte concentration 0.4 μM
  Binding of peptide-HLA-E complexes to CD94/NKG2C normalized to a theoretical Rmax: 0.076
[3]; CD94/NKG2C analyte concentration 0.8 μM
  Binding of peptide-HLA-E complexes to CD94/NKG2C normalized to a theoretical Rmax: 0.123
[3]; CD94/NKG2C analyte concentration 1.6 μM
  Binding of peptide-HLA-E complexes to CD94/NKG2C normalized to a theoretical Rmax: 0.180
[3]; CD94/NKG2C analyte concentration 3.2 μM
  Binding of peptide-HLA-E complexes to CD94/NKG2C normalized to a theoretical Rmax: 0.240
[3]; CD94/NKG2C analyte concentration 6.4 μM
  Binding of peptide-HLA-E complexes to CD94/NKG2C normalized to a theoretical Rmax: 0.294
[3]; CD94/NKG2C analyte concentration 12.8 μM
  Binding of peptide-HLA-E complexes to CD94/NKG2C normalized to a theoretical Rmax: 0.333
[3]; CD94/NKG2C analyte concentration 25.6 μM
  Binding of peptide-HLA-E complexes to CD94/NKG2C normalized to a theoretical Rmax: 0.359
